Data taken from US12441726B2, “Compounds and uses thereof” (Foghorn Therapeutics Inc., priority 2020, dated 2025).

Assays:
BRM = BRM (Homo sapiens, UniProt P51531); experiment: ATPase catalytic activity assay (ADP-Glo), BRM; conditions: 30 nM BRM, 400 μM ATP; for IC50: BRM ATPase: IC50 (uM)
BRG-1 = BRG-1 (Homo sapiens, UniProt P51532); experiment: ATPase catalytic activity assay (ADP-Glo), BRG-1; conditions: for Emax: 1 h, read-out: BRG1 Max % Inhibition, ADP-Glo, 30 nM BRG-1, 400 μM ATP
Chain of BRG-1 (P51532 whole entry): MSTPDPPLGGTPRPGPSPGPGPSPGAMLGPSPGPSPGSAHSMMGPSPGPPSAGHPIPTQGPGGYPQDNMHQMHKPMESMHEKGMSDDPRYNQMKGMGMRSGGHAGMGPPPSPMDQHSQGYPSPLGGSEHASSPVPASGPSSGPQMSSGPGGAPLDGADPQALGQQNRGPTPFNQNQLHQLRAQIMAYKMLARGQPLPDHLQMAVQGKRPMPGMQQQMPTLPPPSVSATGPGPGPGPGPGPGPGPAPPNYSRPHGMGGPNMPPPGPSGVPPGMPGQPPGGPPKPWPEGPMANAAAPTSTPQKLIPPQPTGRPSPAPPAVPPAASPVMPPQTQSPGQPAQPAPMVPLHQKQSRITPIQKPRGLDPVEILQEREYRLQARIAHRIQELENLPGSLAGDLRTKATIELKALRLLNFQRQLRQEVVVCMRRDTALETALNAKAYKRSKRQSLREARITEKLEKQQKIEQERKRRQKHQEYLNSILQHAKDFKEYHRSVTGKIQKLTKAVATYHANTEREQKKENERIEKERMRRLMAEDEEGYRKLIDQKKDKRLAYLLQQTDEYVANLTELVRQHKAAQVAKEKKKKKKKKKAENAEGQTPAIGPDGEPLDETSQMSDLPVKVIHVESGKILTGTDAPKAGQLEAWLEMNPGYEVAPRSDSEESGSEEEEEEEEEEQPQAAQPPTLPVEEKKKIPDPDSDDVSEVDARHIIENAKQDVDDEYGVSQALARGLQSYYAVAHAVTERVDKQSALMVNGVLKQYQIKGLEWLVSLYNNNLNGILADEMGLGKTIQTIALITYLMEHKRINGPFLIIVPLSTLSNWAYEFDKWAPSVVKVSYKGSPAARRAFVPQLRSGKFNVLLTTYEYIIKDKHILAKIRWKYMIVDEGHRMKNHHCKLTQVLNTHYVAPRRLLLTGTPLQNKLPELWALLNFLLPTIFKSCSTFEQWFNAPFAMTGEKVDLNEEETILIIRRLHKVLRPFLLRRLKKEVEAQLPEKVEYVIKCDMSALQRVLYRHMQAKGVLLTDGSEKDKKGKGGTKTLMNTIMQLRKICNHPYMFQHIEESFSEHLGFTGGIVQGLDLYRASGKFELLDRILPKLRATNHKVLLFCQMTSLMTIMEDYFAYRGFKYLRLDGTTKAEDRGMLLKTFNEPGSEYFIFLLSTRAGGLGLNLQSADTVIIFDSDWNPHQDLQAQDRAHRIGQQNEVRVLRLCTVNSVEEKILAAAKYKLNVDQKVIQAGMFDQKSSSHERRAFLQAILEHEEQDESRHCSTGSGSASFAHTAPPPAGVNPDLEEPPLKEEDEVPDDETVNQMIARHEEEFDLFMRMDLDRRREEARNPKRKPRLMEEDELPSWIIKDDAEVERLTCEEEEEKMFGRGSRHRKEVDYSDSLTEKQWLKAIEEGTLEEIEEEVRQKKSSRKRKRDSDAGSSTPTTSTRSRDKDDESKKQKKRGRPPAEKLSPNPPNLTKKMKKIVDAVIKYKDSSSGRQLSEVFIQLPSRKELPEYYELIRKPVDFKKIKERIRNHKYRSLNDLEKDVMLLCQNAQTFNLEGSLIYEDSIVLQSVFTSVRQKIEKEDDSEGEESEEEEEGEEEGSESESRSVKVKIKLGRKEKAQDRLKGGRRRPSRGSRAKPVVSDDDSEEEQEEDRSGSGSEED

Chain of BRM (P51531 whole entry): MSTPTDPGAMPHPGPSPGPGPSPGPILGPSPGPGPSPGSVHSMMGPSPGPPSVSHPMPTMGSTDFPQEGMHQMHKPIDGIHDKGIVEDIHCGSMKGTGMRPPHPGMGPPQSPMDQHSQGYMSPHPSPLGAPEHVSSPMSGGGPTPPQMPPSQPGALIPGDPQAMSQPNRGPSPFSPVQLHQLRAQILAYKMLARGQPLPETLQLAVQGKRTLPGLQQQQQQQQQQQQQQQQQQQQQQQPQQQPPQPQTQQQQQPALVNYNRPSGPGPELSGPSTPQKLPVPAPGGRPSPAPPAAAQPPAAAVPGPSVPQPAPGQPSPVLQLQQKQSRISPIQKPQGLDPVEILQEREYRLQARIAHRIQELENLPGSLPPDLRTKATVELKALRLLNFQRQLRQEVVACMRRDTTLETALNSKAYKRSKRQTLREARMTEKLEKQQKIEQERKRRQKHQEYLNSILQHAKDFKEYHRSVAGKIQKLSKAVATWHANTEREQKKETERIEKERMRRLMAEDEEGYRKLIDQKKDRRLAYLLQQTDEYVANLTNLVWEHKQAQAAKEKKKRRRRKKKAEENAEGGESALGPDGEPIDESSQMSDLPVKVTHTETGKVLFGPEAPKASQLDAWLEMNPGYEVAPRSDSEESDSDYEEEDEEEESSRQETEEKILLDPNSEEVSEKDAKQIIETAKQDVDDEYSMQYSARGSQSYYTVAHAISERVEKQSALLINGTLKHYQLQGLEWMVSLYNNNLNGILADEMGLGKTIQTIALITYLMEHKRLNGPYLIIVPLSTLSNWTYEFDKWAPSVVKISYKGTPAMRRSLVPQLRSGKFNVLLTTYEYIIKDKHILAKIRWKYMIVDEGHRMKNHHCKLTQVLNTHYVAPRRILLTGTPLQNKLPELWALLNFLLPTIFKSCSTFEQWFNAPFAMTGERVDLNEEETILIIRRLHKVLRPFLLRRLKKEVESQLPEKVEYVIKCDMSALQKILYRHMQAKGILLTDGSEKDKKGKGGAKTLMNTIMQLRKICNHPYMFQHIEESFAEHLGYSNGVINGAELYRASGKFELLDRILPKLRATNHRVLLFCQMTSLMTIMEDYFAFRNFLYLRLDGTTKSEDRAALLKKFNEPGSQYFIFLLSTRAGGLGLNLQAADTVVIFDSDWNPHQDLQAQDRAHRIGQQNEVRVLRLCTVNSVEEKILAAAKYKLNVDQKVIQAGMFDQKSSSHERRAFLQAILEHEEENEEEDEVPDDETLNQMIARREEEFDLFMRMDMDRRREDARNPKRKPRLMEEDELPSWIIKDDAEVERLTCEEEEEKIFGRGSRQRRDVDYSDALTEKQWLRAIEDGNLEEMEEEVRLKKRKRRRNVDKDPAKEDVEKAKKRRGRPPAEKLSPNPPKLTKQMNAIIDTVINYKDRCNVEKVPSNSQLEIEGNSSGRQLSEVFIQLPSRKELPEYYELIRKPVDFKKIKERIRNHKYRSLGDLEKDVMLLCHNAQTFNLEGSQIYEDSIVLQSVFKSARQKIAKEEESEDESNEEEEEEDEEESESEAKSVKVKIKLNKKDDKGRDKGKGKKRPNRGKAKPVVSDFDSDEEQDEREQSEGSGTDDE

Row | SMILES | BRM Max % Inhibition (BRM) [%] | IC50 (BRM) [µM] | IC50 (BRG-1) [nM] | Emax (BRG-1) [%]
1 | CN1CCN(c2cccc(-c3ccc4cnc(CNC(=O)c5ccc6c(c5)[C@](C)(C#N)COC6)cc4n3)n2)CC1 [Compound 465] | 99 | < 0.1 | 100 to 500 | 89
2 | CNC(=O)c1cccc(-c2ccc3cnc(CNC(=O)c4ccc5c(c4)[C@](C)(C#N)COC5)cc3n2)n1 [Compound 466] | 99 | < 0.1 | 500 to 1000 | 79
3 | CNC(=O)c1cc(-c2ccc3cnc(CNC(=O)c4ccc5c(c4)[C@](C)(C#N)COC5)cc3n2)ccc1F [Compound 467] | 99 | < 0.1 | 100 to 500 | 86
4 | COCCNC(=O)c1cccc(-c2ccc3cnc(CNC(=O)c4ccc5c(c4)[C@](C)(C#N)COC5)cc3n2)c1 [Compound 468] | 100 | < 0.1 | 500 to 1000 | 80
5 | C[C@@]1(C#N)COCc2ccc(C(=O)NCc3cc4nc(-c5cccc(C(F)F)n5)ccc4cn3)cc21 [Compound 469] | 98 | < 0.1 | 100 to 500 | 85
6 | C[C@@]1(C#N)COCc2ccc(C(=O)NCc3cc4nc(N5CCCC5=O)ccc4cn3)cc21 [Compound 471] | 96 | 0.1 to 0.5 | > 1000 | 63
7 | CN(C)c1ncc(-c2ccc3cnc(CNC(=O)c4ccc5c(c4)[C@](C)(C#N)COC5)cc3n2)cn1 [Compound 472] | 86 | 0.1 to 0.5 | > 1000 | 51
8 | C[C@@]1(C#N)COCc2ccc(C(=O)NCc3cc4nc(-n5cccn5)ccc4cn3)cc21 [Compound 473] | 96 | 0.1 to 0.5 | > 1000 | 72
9 | CN1CCN(c2cccc(-c3ccc4cnc(CNC(=O)c5ccc6c(c5)[C@](C)(C#N)COC6)cc4n3)c2)CC1 [Compound 474] | 93 | 0.1 to 0.5 | > 1000 | 53
10 | CC(=O)N1CCOc2ccc(-c3ccc4cnc(CNC(=O)c5ccc6c(c5)[C@](C)(C#N)COC6)cc4n3)cc21 [Compound 475] | 99 | < 0.1 | 100 to 500 | 98
11 | CN1C(=O)Cc2ccc(-c3ccc4cnc(CNC(=O)c5ccc6c(c5)[C@](C)(C#N)COC6)cc4n3)cc21 [Compound 476] | 94 | 0.1 to 0.5 | 500 to 1000 | 63
12 | C[C@@]1(C#N)COCc2ccc(C(=O)NCc3cc4nc(-c5cnn(-c6ccncc6)c5)ccc4cn3)cc21 [Compound 477] | 88 | 0.1 to 0.5 | > 1000 | 49
13 | C[C@@]1(C#N)COCc2ccc(C(=O)NCc3cc4nc(-c5ccc(C(F)F)nc5)ccc4cn3)cc21 [Compound 478] | 95 | 0.1 to 0.5 | 500 to 1000 | 63
14 | C[C@@]1(C#N)COCc2ccc(C(=O)NCc3cc4nc(-c5cccc(C6(O)COC6)c5)ccc4cn3)cc21 [Compound 479] | 96 | 0.1 to 0.5 | 500 to 1000 | 72
15 | COc1cc(F)ccc1-c1ccc2cnc(CNC(=O)c3ccc4c(c3)[C@](C)(C#N)COC4)cc2n1 [Compound 481] | 98 | < 0.1 | 100 to 500 | 95
16 | COc1cncc(-c2ccc3cnc(CNC(=O)c4ccc5c(c4)[C@](C)(C#N)COC5)cc3n2)c1 [Compound 482] | 90 | 0.1 to 0.5 | 500 to 1000 | 55
17 | CNC(=O)c1cccc(-c2ccc3cnc(CNC(=O)c4ccc5c(c4)[C@](C)(C#N)COC5)cc3n2)c1 [Compound 483] | 93 | 0.1 to 0.5 | 500 to 1000 | 72
18 | C[C@@]1(C#N)COCc2ccc(C(=O)NCc3cc4nc(-c5cccc(C(=O)N6CCC6)c5)ccc4cn3)cc21 [Compound 484] | 96 | 0.1 to 0.5 | 500 to 1000 | 77
19 | CN1Cc2ccc(-c3ccc4cnc(CNC(=O)c5ccc6c(c5)[C@](C)(C#N)COC6)cc4n3)cc2C1=O [Compound 485] | 93 | 0.1 to 0.5 | 500 to 1000 | 82
20 | C[C@@]1(C#N)COCc2ccc(C(=O)NCc3cc4nc(N5CCn6nccc6C5)ccc4cn3)cc21 [Compound 486] | 95 | 0.1 to 0.5 | > 1000 | 70
21 | C[C@@]1(C#N)COCc2ncc(C(=O)NCc3cc4nc(-c5cc(F)cc(N6CCC6)c5)ccc4cn3)cc21 [Compound 487] | 100 | < 0.1 | 100 to 500 | 95
22 | COc1ncccc1-c1ccc2cnc(CNC(=O)c3ccc4c(c3)[C@](C)(C#N)COC4)cc2n1 [Compound 488] | 101 | < 0.1 | 100 to 500 | 91

Row | SMILES | BRM Max % Inhibition (BRM) [%] | IC50 (BRM) [µM] | IC50 (BRG-1) [nM] | Emax (BRG-1) [%]
23 | COc1ccncc1-c1ccc2cnc(CNC(=O)c3ccc4c(c3)[C@](C)(C#N)COC4)cc2n1 [Compound 489] | 97 | 0.1 to 0.5 | 500 to 1000 | 76
24 | CN(C)C(=O)c1cccc(-c2ccc3cnc(CNC(=O)c4ccc5c(c4)[C@](C)(C#N)COC5)cc3n2)c1 [Compound 490] | 93 | 0.1 to 0.5 | > 1000 | 40
25 | COc1c(-c2ccc3cnc(CNC(=O)c4ccc5c(c4)[C@](C)(C#N)COC5)cc3n2)ccc2cnn(C)c12 [Compound 491] | 98 | 0.1 to 0.5 | 500 to 1000 | 76
26 | COc1cccc(-c2ccc3cnc(CNC(=O)c4ccc5c(c4)[C@](C)(C#N)COC5)cc3n2)n1 [Compound 492] | 99 | < 0.1 | 100 to 500 | 91
27 | C[C@@]1(C#N)COCc2ccc(C(=O)NCc3cc4nc(-c5cnn6ccccc56)ccc4cn3)cc21 [Compound 493] | 96 | 0.1 to 0.5 | 500 to 1000 | 68
28 | C[C@@]1(C#N)COCc2ccc(C(=O)NCc3cc4cc(-c5ccccc5)ccc4nn3)cc21 [Compound 494] | 99 | < 0.1 | 100 to 500 | 90
29 | CN1Cc2cc(-c3ccc4cnc(CNC(=O)c5ccc6c(c5)[C@](C)(C#N)COC6)cc4n3)ccc2C1=O [Compound 495] | 99 | < 0.1 | 100 to 500 | 88
30 | C[C@@]1(C#N)COCc2ccc(C(=O)NCc3cc4nc(-c5cccc(N6CCC6)n5)ccc4cn3)cc21 [Compound 496] | 100 | < 0.1 | < 100 | 92
31 | C[C@@]1(C#N)COCc2ccc(C(=O)NCc3cc4nc(-c5cncc(N6CCC6)n5)ccc4cn3)cc21 [Compound 497] | 100 | < 0.1 | < 100 | 97
32 | CN1C(=O)Cc2cc(-c3ccc4cnc(CNC(=O)c5ccc6c(c5)[C@](C)(C#N)COC6)cc4n3)ccc21 [Compound 498] | 98 | 0.1 to 0.5 | 100 to 500 | 83
33 | C[C@@]1(C#N)COCc2ccc(C(=O)NCc3cc4nc(-c5cnn(-c6cccnc6)c5)ccc4cn3)cc21 [Compound 499] | 85 | 0.1 to 0.5 | > 1000 | 29
34 | C[C@@]1(C#N)COCc2ncc(C(=O)NCc3cc4nc(-c5cccc(C(F)F)c5)ccc4cn3)cc21 [Compound 500] | 95 | < 0.1 | 500 to 1000 | 83
35 | Cc1cc(-c2ccc3cnc(CNC(=O)c4ccc5c(c4)[C@](C)(C#N)COC5)cc3n2)n(C)n1 [Compound 501] | 85 | 0.1 to 0.5 | > 1000 | 47
36 | CCOC(=O)C12CCC(CC1)N(c1ccc3cnc(CNC(=O)c4ccc5c(c4)[C@](C)(C#N)COC5)cc3n1)C2 [Compound 502] | 89 | 0.1 to 0.5 | 500 to 1000 | 70
37 | Cc1ccn(-c2ccc3cnc(CNC(=O)c4ccc5c(c4)[C@](C)(C#N)COC5)cc3n2)n1 [Compound 503] | 94 | 0.1 to 0.5 | > 1000 | 72
38 | C[C@@]1(C#N)COCc2ccc(C(=O)NCc3cc4nc(-c5cnn(C(F)F)c5)ccc4cn3)cc21 [Compound 504] | 84 | 0.1 to 0.5 | > 1000 | 44
39 | Cc1cnn(-c2ccc3cnc(CNC(=O)c4ccc5c(c4)[C@](C)(C#N)COC5)cc3n2)c1 [Compound 505] | 96 | 0.1 to 0.5 | 500 to 1000 | 72
40 | C[C@@]1(C#N)COCc2ccc(C(=O)NCc3cc4nc(-c5ccnc(N6CCC6)n5)ccc4cn3)cc21 [Compound 506] | 97 | < 0.1 | 100 to 500 | 96
41 | COc1cnccc1-c1ccc2cnc(CNC(=O)c3ccc4c(c3)[C@](C)(C#N)COC4)cc2n1 [Compound 507] | 97 | < 0.1 | 100 to 500 | 77
42 | C[C@@]1(C#N)COCc2ccc(C(=O)NCc3cc4cc(-c5ccccc5)ncc4cn3)cc21 [Compound 508] | 90 | 0.1 to 0.5 | > 1000 | 46
43 | Cc1nn(C)cc1-c1ccc2cnc(CNC(=O)c3ccc4c(c3)[C@](C)(C#N)COC4)cc2n1 [Compound 509] | 93 | 0.1 to 0.5 | 500 to 1000 | 54
